Reference: patent US20260174742A1, “INHIBITORS OF CYCLIC ADP RIBOSE HYDROLASE AND METHODS OF USE THEREOF” (Flagship Pioneering Innovations VI, LLC, priority 2022, published 2026)

Molecular target: T1, Human recombinant CD38 (Homo sapiens, UniProt P28907)
T1 construct: purchased BPS Bioscience
T1 sequence (P28907 1-300): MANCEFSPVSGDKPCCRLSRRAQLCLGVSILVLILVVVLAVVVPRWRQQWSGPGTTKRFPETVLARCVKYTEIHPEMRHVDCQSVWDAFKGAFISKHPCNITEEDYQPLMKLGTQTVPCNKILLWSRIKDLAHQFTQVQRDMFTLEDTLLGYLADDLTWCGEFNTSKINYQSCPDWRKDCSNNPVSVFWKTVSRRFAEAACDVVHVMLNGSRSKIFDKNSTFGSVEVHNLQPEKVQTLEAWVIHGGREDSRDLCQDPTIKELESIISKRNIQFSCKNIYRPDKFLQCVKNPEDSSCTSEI
Test: CD38 hydrolase inhibition assay (ε-NAD substrate, fluorescence)
Type: biochemical
Details: 0.2 ng/μL CD38, 100 μM ε-NAD, 15 m at room temperature, excitation 300 nm, emission 410 nm
Method: Example 9: CD38 Hydrolase Inhibition Assay
The CD38 hydrolase inhibition assay measures the glycohydrolase activity of CD38, using an NAD analog as substrate and measuring formation of a fluorescent ADP ribose analog. A 4× buffer was prepared with 1M sucrose and 160 mM Tris-HCl at pH 7.4, for a final assay concentration of 250 mM sucrose and 40 mM Tris-HCl. The 4× solution was kept at 4° C. and warmed to room temperature before use. Tween20 was added to 1× buffer for a final concentration of 0.05%. Human recombinant CD38 (BPS Bioscience) was diluted to 0.4 ng/μL in 1× buffer and 12.5 μL added to each plate well. Inhibitors were added and DMSO content was normalized to the highest concentration on the plate, with an upper limit of 0.5%. Finally, ε-NAD was diluted to 200 μM in 1× buffer and 12.5 μL added to each plate well, for final well concentrations of 0.2 ng/μL CD38 and 100 μM ε-NAD. Plates were covered and incubated at room temperature for 15 m, and then read on a plate reader using excitation 300 nm and emission 410 nm. […] IC50s for test compounds were determined either using GraphPad Prism software v9.3, or CDD Vault.

IC50	Structure (SMILES)
100 to 1000 nM	CO[C@H]1CC[C@H](NC(=O)c2cc(C)cc(-n3ccnc3)c2)CC1 [Compound 101, 3-(imidazol-1-yl)-5-methyl-N-[(trans)-4-methoxycyclohexyl]benzamide]
< 100 nM	CO[C@H]1CC[C@H](NC(=O)c2cc(-c3cnn(C)c3)cc(-n3ccnc3)c2)CC1 [Compound 102, 3-(imidazol-1-yl)-5-(1-methylpyrazol-4-yl)-N-[(trans)-4-methoxycyclohexyl]benzamide]
100 to 1000 nM	CO[C@H]1CC[C@H](NC(=O)c2cc(N3CC[C@H](O)C3)cc(-n3ccnc3)c2)CC1 [Compound 104, 3-[(3S)-3-hydroxypyrrolidin-1-yl]-5-(imidazol-1-yl)-N-[(trans)-4-methoxycyclohexyl]benzamide]
100 to 1000 nM	CO[C@H]1CC[C@H](NC(=O)c2cc(-c3cncs3)cc(N3CCC[C@@H]3CO)c2)CC1 [Compound 105, 3-[(2R)-2-(hydroxymethyl)pyrrolidin-1-yl]-N-[(trans)-4-methoxycyclohexyl]-5-(1,3-thiazol-5-yl)benzamide]
< 100 nM	COCCO[C@H]1CC[C@H](NC(=O)c2cc(-c3cnn(C)c3)cc(-c3cncs3)c2)CC1 [Compound 107, 3-(1-methylpyrazol-4-yl)-N-[(trans)-4-(2-methoxyethoxy)cyclohexyl]-5-(1,3-thiazol-5-yl)benzamide]
> 1000 nM	CO[C@H]1CC[C@H](NS(=O)(=O)c2cc(C)cc(-n3ccnc3)c2)CC1 [Compound 108, 3-(imidazol-1-yl)-5-methyl-N-[(trans)-4-methoxycyclohexyl]benzene sulfonamide]
